This is an account of results in ChEMBL document CHEMBL1138537, “Small-molecule scaffolds for CYP51 inhibitors identified by high-throughput screening and defined by X-ray crystallography” (Antimicrob Agents Chemother, 2007).

The source made the active and inactive calls. The rule behind the calls is not given here.

The target in series [1] is T1, Sterol 14alpha-demethylase (Mycobacterium tuberculosis, UniProt P9WPP9).
T1 sequence (P9WPP9 whole entry): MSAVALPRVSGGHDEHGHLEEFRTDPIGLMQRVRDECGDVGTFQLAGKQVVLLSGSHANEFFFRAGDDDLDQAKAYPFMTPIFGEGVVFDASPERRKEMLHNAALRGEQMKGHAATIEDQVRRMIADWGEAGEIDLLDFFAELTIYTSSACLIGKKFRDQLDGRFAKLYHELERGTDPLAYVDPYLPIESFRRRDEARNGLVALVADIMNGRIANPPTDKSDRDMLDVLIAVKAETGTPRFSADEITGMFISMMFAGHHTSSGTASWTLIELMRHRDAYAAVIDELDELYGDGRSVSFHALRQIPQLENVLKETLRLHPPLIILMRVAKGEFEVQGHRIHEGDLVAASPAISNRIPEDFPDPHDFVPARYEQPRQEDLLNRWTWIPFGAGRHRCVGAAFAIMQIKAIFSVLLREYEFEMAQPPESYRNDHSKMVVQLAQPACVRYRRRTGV

Series [2] concerns Mycobacterium tuberculosis. The series can be described thus: Antimycobacterial activity against Mycobacterium tuberculosis H37Rv at 200 uM after 4 days by alamar blue assay. The class given is functional, organism-based. In general terms: The colour change of resazurin is a common sign of viable cells or microbes.
The test system of series [3] is Mycobacterium tuberculosis. Put plainly: Antimycobacterial activity against Mycobacterium tuberculosis H37Rv at 100 uM after 4 days by alamar blue assay. It is filed as functional, organism-based.
Series [4] deals with T2, Cytochrome P450 130 (Mycobacterium tuberculosis, UniProt P9WPN5).
T2 sequence (P9WPN5 whole entry): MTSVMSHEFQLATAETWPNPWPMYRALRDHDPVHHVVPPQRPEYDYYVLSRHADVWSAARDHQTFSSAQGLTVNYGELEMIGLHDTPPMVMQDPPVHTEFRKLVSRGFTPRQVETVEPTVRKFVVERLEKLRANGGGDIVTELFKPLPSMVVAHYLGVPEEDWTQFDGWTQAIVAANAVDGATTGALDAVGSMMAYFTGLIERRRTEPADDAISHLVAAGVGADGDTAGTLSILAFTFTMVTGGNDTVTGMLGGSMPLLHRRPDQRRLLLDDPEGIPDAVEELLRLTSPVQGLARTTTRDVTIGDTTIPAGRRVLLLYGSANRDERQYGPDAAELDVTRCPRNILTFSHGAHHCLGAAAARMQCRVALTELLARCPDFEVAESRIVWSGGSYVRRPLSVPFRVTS

The target in series [5] is T3, Steroid C26-monooxygenase (Mycobacterium tuberculosis, UniProt P9WPP1).
T3 sequence (P9WPP1 whole entry): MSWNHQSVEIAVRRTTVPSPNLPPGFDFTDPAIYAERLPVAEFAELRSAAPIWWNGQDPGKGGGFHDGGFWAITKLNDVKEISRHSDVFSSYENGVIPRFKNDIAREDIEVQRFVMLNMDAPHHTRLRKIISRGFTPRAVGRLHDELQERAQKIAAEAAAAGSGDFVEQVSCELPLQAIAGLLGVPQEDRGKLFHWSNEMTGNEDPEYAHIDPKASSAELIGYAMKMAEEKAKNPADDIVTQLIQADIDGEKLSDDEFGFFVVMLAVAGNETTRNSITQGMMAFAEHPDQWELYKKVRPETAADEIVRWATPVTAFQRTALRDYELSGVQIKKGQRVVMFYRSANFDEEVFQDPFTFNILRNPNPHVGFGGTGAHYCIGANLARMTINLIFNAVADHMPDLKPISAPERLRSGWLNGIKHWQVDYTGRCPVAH

In series [6] the target is T1, Sterol 14alpha-demethylase. The source holds these as a separate data set.
Series [7] deals with Mycobacterium tuberculosis. The series can be described thus: Antimycobacterial activity against Mycobacterium tuberculosis H37Rv at 500 uM after 4 days by alamar blue assay. The class given is functional, organism-based.
The test system of series [8] is Mycobacterium tuberculosis. Put plainly: Antimycobacterial activity against Mycobacterium tuberculosis H37Rv at 250 uM after 4 days by alamar blue assay. The class given is functional, organism-based.

As usually defined, the Kd is the free concentration of one partner at which half of the binding sites on the other are occupied at equilibrium, for simple one-to-one binding. In series [1], `O=C(c1ccc(O)cc1)c1ccc(O)cc1` gave a Kd of 28 µM. In addition, the result in series [2] and in series [3] was Active. Besides, the Activity entry in series [4] (mycobacterium tuberculosis) and in series [5] (mycobacterium tuberculosis) was “Not Active” in each case.
`Nc1ccc(NS(=O)(=O)c2ccc(Cl)cc2)cc1`: in series [6], the dissociation constant (Kd) worked out at 5 µM.
Turning to `COc1ccccc1C(CCN)c1ccco1` (stereo not drawn), the affinity in series [6], expressed as Kd, was 5 µM.
The same measure, in the same setting: to `CCC1(C)CC(CCN)(c2ccc(OC)cc2)CCO1` (stereo not drawn) belongs 5 µM.
In series [1], `c1ccc(-c2c[nH]cn2)cc1` returned a dissociation constant Kd of 1.3 µM.
The compound `NCC(=O)N1c2ccccc2Sc2ccccc21` returned a Kd in series [6] of 5 µM.
In series [6], `O=C(Nc1ccncc1)C1(c2ccccc2)CCOCC1` showed a Kd of 5 µM.
Consider `O=C1c2cc(O)ccc2-c2ccc(O)cc21`, for which the Kd in series [1] came out at 25 µM.
As for `C[C@]12CC[C@@H]3c4ccc(O)cc4CC[C@H]3[C@@H]1C[C@@H](O)[C@@H]2O` [ESTRIOL], the Kd in series [1] was determined as 100 µM.
Take `O=C(Nc1ccncc1)C(NS(=O)(=O)c1cccc2nsnc12)c1ccccc1` (stereo not drawn): the Kd in series [6] was found to be 5 µM.
As for `CCC(C(=O)Nc1ccncc1)c1ccccc1` (stereo not drawn), the outcome in series [7] and in series [8] was Active. For the same compound, the Kd in series [4] was determined as 260 µM; in series [5] it was 2000 µM.
